Data: patent publication US7160888B2, “[1,8]naphthyridin-2-ones and related compounds for the treatment of schizophrenia” (Warner Lambert Company LLC, priority 2003, dated 2007)

The compounds below were run against D2 receptor (Homo sapiens, UniProt P14416) (assay: [3H]Thymidine uptake assay for D2 intrinsic activity). Conditions: Table 1; test compound 1 μM; 1 μM Quinpirole = 100% intrinsic activity.
Assay type: cell-based

D2 receptor, sequence (P14416 whole entry): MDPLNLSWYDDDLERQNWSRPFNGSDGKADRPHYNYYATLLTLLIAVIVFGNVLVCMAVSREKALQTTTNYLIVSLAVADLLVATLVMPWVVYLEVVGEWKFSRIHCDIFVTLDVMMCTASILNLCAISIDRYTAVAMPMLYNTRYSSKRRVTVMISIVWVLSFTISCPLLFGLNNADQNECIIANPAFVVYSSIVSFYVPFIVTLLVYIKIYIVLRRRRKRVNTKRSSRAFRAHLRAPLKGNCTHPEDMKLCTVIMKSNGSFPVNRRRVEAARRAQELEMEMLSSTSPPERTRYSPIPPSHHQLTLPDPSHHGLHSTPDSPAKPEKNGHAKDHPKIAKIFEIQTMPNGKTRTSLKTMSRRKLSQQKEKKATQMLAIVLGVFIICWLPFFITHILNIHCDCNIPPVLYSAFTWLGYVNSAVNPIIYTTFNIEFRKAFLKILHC

Point of comparison: `O=c1ccc2ccc(OCCN3CCN(c4cccc(Cl)c4Cl)CC3)nc2[nH]1` [Example C4, 7-{2-[4-(2,3-Dichloro-phenyl)-piperazin-1-yl]-ethoxy}-1H-[1,8]naphthyridin-2-one], Emax at 1 µM 2%. Against it:
- CC(CCCN1CCN(c2cccc(Cl)c2Cl)CC1)Oc1ccc2c(n1)NC(=O)CC2 (stereo not drawn) [Example C5, 7-{4-[4-(2,3-Dichloro-phenyl)-piperazin-1-yl]-1-methyl-butoxy}-3,4-dihydro-1H-[1,8]naphthyridin-2-one] — higher, 40%
- CC(CCCN1CCN(c2cccc3ccccc23)CC1)Oc1ccc2c(n1)NC(=O)CC2 (stereo not drawn) [Example C6, 7-[1-Methyl-4-(4-naphthalen-1-yl-piperazin-1-yl)-butoxy]-3,4-dihydro-1H-[1,8]naphthyridin-2-one] — higher, 44%
- CC(C)(CCCN1CCN(c2cccc(Cl)c2Cl)CC1)Oc1ccc2c(n1)NC(=O)CC2 [Example C7, 7-{4-[4-(2,3-Dichloro-phenyl)-piperazin-1-yl]-1,1-dimethyl-butoxy}-3,4-dihydro-1H-[1,8]naphthyridin-2-one] — higher, 46%
- CC(C)(CCCN1CCN(c2cccc3ccccc23)CC1)Oc1ccc2c(n1)NC(=O)CC2 [Example C8, 7-[1,1-Dimethyl-4-(4-naphthalen-1-yl-piperazin-1-yl)-butoxy]-3,4-dihydro-1H-[1,8]naphthyridin-2-one] — higher, 33%
- Cc1cccc(N2CCN(CCCCCc3ccc4c(n3)NC(=O)CC4)CC2)c1Cl [Example C10, 7-{5-[4-(2-Chloro-3-methyl-phenyl)-piperazin-1-yl]-pentyl}-3,4-dihydro-1H-[1,8]naphthyridin-2-one] — higher, 5%
- O=C1CCc2ccc(CCCCCN3CCN(c4ccc(F)c(Cl)c4Cl)CC3)nc2N1 [Example C11, 7-{5-[4-(2,3-Dichloro-4-fluoro-phenyl)-piperazin-1-yl]-pentyl}-3,4-dihydro-1H-[1,8]naphthyridin-2-one] — higher, 7%
- O=C1CCc2ccc(CCCCCN3CCN(c4cccc5c4CCCC5)CC3)nc2N1 [Example C12, 7-{5-[4-(5,6,7.8-Tetrahydro-naphthalen-1-yl)-piperazin-1-yl]-pentyl}-3,4-dihydro-1H-[1,8]naphthyridin-2-one] — higher, 12%
- O=C1CCc2ccc(CCCCCN3CCN(c4cccc5ccccc45)CC3)nc2N1 [Example C13, 7-[5-(4-Naphthalen-1-yl-piperazin-1-yl)-pentyl]-3,4-dihydro-1H-[1,8]naphthyridin-2-one] — higher, 14%
- O=C1CCc2ccc(CCCCCN3CCN(c4ccc(F)cc4Cl)CC3)nc2N1 [Example C14, 7-{5-[4-(2-Chloro-4-fluoro-phenyl)-piperazin-1-yl]-pentyl}-3,4-dihydro-1H-[1,8]naphthyridin-2-one] — higher, 10%
- Cc1c(F)ccc(N2CCN(CCCCCc3ccc4c(n3)NC(=O)CC4)CC2)c1Cl [Example C15, 7-{5-[4-(2-Chloro-4-fluoro-3-methyl-phenyl)-piperazin-1-yl]-pentyl}-3,4-dihydro-1H-[1,8]naphthyridin-2-one] — higher, 8%
- Cc1cccc(N2CCN(CCCCCc3ccc4c(n3)NC(=O)CC4)CC2)n1 [Example C16, 7-{5-[4-(6-Methyl-pyridin-2-yl)-piperazin-1-yl]-pentyl}-3,4-dihydro-1H-[1,8]naphthyridin-2-one] — higher, 34%
- CCc1cccc(N2CCN(CCCCCc3ccc4c(n3)NC(=O)CC4)CC2)n1 [Example C17, 7-{5-[4-(6-Ethyl-pyridin-2-yl)-piperazin-1-yl]-pentyl}-3,4-dihydro-1H-[1,8]naphthyridin-2-one] — higher, 21%
- O=C1CCc2ccc(CCCCCN3CCN(c4cccc(C5CC5)n4)CC3)nc2N1 [Example C18, 7-{5-[4-(6-Cyclopropyl-pyridin-2-yl)-piperazin-1-yl]-pentyl}-3,4-dihydro-1H-[1,8]naphthyridin-2-one] — higher, 34%
- Cc1cc(C)nc(N2CCN(CCCCCc3ccc4c(n3)NC(=O)CC4)CC2)c1 [Example C19, 7-{5-[4-(4,6-Dimethyl-pyridin-2-yl)-piperazin-1-yl]-pentyl}-3,4-dihydro-1H-[1,8]naphthyridin-2-one] — higher, 13%
- Cc1cc2ccc(OCCCCN3CCN(c4cccc(Cl)c4Cl)CC3)nc2[nH]c1=O [Example D4, 7-{4-[4-(2,3-Dichloro-phenyl)-piperazin-1-yl]-butoxy}-3-methyl-1H-[1,8]naphthyridin-2-one] — higher, 16%
- O=c1[nH]c2nc(OCCCCN3CCN(c4cccc(Cl)c4Cl)CC3)ccc2cc1F [Example D9, 7-{4-[4-(2,3-Dichloro-phenyl)-piperazin-1-yl]-butoxy}-3-fluoro-1H-[1,8]naphthyridin-2-one] — higher, 15%
- O=c1[nH]c2nc(OCCCCN3CCN(c4cccc5ccccc45)CC3)ccc2cc1F [Example D10, 3-Fluoro-7-[4-(4-naphthalen-1-yl-piperazin-1-yl)-butoxy]-1H-[1,8]naphthyridin-2-one] — higher, 22%
- O=c1[nH]c2nc(OCCCCN3CCN(c4cccc5ccccc45)CC3)ccc2cc1CC(F)(F)F [Example D11, 7-[4-(4-Naphthalen-1-yl-piperazin-1-yl)-butoxy]-3-(2,2,2-trifluoro-ethyl)-1H-[1,8]naphthyridin-2-one] — higher, 30%
- CC1(C)Cc2ccc(CCCCCN3CCN(c4cccc(Cl)c4Cl)CC3)nc2NC1=O [Example D12, 7-{5-[4-(2,3-Dichloro-phenyl)-piperazin-1-yl]-pentyl}-3,3-dimethyl-3,4-dihydro-1H-[1,8]naphthyridin-2-one] — higher, 3%
- CC1(C)Cc2ccc(OCCCCN3CCN(c4cccc(Cl)c4Cl)CC3)nc2NC1=O [Example D13, 7-{4-[4-(2,3-Dichloro-phenyl)-piperazin-1-yl]-butoxy}-3,3-dimethyl-3,4-dihydro-1H-[1,8]naphthyridin-2-one] — higher, 19%
- CC1(C)C(=O)Nc2nc(OCCCCN3CCN(c4cccc(Cl)c4Cl)CC3)ccc2C1=O [Example D14, 7-{4-[4-(2,3-Dichloro-phenyl)-piperazin-1-yl]-butoxy}-3,3-dimethyl-1H-[1,8]naphthyridine-2,4-dione] — higher, 3%
- CC1(C)C(=O)Nc2nc(OCCCCN3CCN(c4cccc(Cl)c4Cl)CC3)ccc2C1O (stereo not drawn) [Example D15, 7-{4-[4-(2,3-Dichloro-phenyl)-piperazin-1-yl]-butoxy}-4-hydroxy-3,3-dimethyl-3,4-dihydro-1H-[1,8]naphthyridin-2-one] — higher, 25%
- CC1(C)CC(=O)Nc2nc(OCCCCN3CCN(c4cccc5ccccc45)CC3)ccc21 [Example D16, 4,4-Dimethyl-7-[4-(4-naphthalen-1-yl-piperazin-1-yl)-butoxy]-3,4-dihydro-1H-[1,8]naphthyridin-2-one] — higher, 31%
- CC1(C)CC(=O)Nc2nc(OCCCCN3CCN(c4cccc(Cl)c4Cl)CC3)ccc21 [Example D17, 7-{4-[4-(2,3-Dichloro-phenyl)-piperazin-1-yl]-butoxy}-4,4-dimethyl-3,4-dihydro-1H-[1,8]naphthyridin-2-one] — higher, 29%
- CC1(C)CC(=O)Nc2nc(OCCCCN3CCN(c4cccc5c4CCCC5)CC3)ccc21 [Example D18, 4,4-Dimethyl-7-{4-[4-(5,6,7,8-tetrahydro-naphthalen-1-yl)-piperazin-1-yl]-butoxy}-3,4-dihydro-1H-[1,8]naphthyridin-2-one] — higher, 37%
- CC1(C)CC(=O)Nc2nc(OCCCCN3CCN(c4cccc5c4CCC5)CC3)ccc21 [Example D19, 7-[4-(4-Indan-4-yl-piperazin-1-yl)-butoxy]-4,4-dimethyl-3,4-dihydro-1H-[1,8]naphthyridin-2-one] — higher, 39%
- Cc1cccc(N2CCN(CCCCOc3ccc4c(n3)NC(=O)CC4(C)C)CC2)c1Cl [Example D20, 7-{4-[4-(2-Chloro-3-methyl-phenyl)-piperazin-1-yl]-butoxy}-4,4-dimethyl-3,4-dihydro-1H-[1,8]naphthyridin-2-one] — higher, 44%
- Cc1c(Cl)cccc1N1CCN(CCCCOc2ccc3c(n2)NC(=O)CC3(C)C)CC1 [Example D21, 7-{4-[4-(3-Chloro-2-methyl-phenyl)-piperazin-1-yl]-butoxy}-4,4-dimethyl-3,4-dihydro-1H-[1,8]naphthyridin-2-one] — higher, 24%
- CC1(C)CC(=O)Nc2nc(OCCCCN3CCN(c4cccc(C5CC5)n4)CC3)ccc21 [Example D22, 7-{4-[4-(6-Cyclopropyl-pyridin-2-yl)-piperazin-1-yl]-butoxy}-4,4-dimethyl-3,4-dihydro-1H-[1,8]naphthyridin-2-one] — higher, 42%
- CCc1ccccc1N1CCN(CCCCOc2ccc3c(n2)NC(=O)CC3(C)C)CC1 [Example D23, 7-{4-[4-(2-Ethyl-phenyl)-piperazin-1-yl]-butoxy}-4,4-dimethyl-3,4-dihydro-1H-[1,8]naphthyridin-2-one] — higher, 33%

Same assay, conditions: Table 2; test compound 1 μM; 1 μM Quinpirole = 100% intrinsic activity

Point of comparison: `CC1(C)CC(=O)Nc2nc(OCCCCN3CCN(c4cccc5ccc(=O)[nH]c45)CC3)ccc21` [Example C4′, 4,4-Dimethyl-7-{4-[4-(2-oxo-1,2-dihydro-quinolin-8-yl)-piperazin-1-yl]-butoxy}-3,4-dihydro-1H-[1,8]naphthyridin-2-one], Emax at 1 µM 21%. Against it:
- CC1(C)CC(=O)Nc2nc(OCCCCN3CCN(c4cccc5ccoc45)CC3)ccc21 [Example C5′, 7-[4-(4-Benzofuran-7-yl-piperazin-1-yl)-butoxy]-4,4-dimethyl-3,4-dihydro-1H-[1,8]naphthyridin-2-one] — higher, 23%
- CC1(C)CC(=O)Nc2nc(OCCCCN3CCN(c4cccc5c4OCCC5)CC3)ccc21 [Example C6′, 7-[4-(4-Chroman-8-yl-piperazin-1-yl)-butoxy]-4,4-dimethyl-3,4-dihydro-1H-[1,8]naphthyridin-2-one] — higher, 24%
- O=C1CCc2cc(F)c(OCCCCN3CCN(c4cccc5cccnc45)CC3)nc2N1 [Example D1′, 6-Fluoro-7-[4-(4-quinolin-8-yl-piperazin-1-yl)-butoxy]-3,4-dihydro-1H-[1,8]naphthyridin-2-one] — higher, 24%
- O=C1CCc2cc(F)c(OCCCCN3CCN(c4cccc5cnccc45)CC3)nc2N1 [Example D2′, 6-Fluoro-7-[4-(4-isoquinolin-5-yl-piperazin-1-yl)-butoxy]-3,4-dihydro-1H-[1,8]naphthyridin-2-one] — higher, 40%
